Measurements reported in EP0478292A1, “Heterocyclic compounds” (THE WELLCOME FOUNDATION LIMITED, priority 1990, dated 1992).
Read-outs that look alike come from different tables or passages of the source.

Target: T1, Purine nucleoside phosphorylase (PNPase) (Homo sapiens, UniProt P00491)
T1 construct: Purine nucleoside phosphorylase (PNPase) was purified from human erythrocytes; from tissue; host or cells: human erythrocytes
T1 sequence (P00491 1-289): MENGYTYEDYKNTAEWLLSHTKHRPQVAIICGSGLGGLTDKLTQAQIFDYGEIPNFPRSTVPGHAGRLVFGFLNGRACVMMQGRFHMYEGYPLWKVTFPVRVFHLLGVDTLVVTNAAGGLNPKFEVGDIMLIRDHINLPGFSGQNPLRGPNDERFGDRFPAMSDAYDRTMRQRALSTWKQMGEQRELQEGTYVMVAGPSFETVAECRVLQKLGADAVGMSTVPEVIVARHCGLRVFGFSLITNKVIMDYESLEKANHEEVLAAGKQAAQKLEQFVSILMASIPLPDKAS
Assay: Inhibition of purine nucleoside phosphorylase, spectrophotometric assay of inosine phosphorolysis coupled with xanthine oxidase
Type: biochemical
Experimental: Enzymology-Purine nucleoside phosphorylase (PNPase) was purified from human erythrocytes by the procedure of Agarwal et al (1). PNPase and xanthine oxidase were desalted before use (2). […] PNPase was assayed spectrophotometrically as previously described (2). In addition to PNPase, the reaction mixtures contained 0.1 mM inosine, 1 mM potassium phosphate, 100 mM Tris=HCl buffer (pH 7.5), 2µM ZnCl₂, and 0.2 U/ml of xanthine oxidase. […] The percent inhibition (%I) of PNP by a single concentration of inhibitor was measured (3).

[1] = apparent inhibition constant calculated from percent inhibition at a single inhibitor concentration assuming competitive inhibition, PNPase from human erythrocytes, 0.1 mM inosine, 1 mM potassium phosphate, pH 7.5, 2µM ZnCl₂, read-out: Ki

Row | Ki [1] | SMILES | Ki
1 | 77 nM | Nc1nc(O)c2ncn(CCCCP(=O)(O)CP(=O)(O)O)c2n1 [Compound 2, (((4-(2-amino-1,6-dihydro-6-oxo-9H-purin-9-yl)butyl)phosphinico)methyl)phosphonic acid] | –
2 | 8.3 nM | Nc1nc(O)c2ncn(CCCCCCCP(=O)(O)CP(=O)(O)O)c2n1 [Compound 4, (((7-(2-amino-1,6-dihydro-6-oxo-9H-purin-9-yl)heptyl)phosphinico)methyl)phosphonic acid] | –
3 | – | CCOP(=O)(O)CP(=O)(O)CCCCCn1cnc2c(O)nc(N)nc21 [Compound 5, ethyl hydrogen (((5-(2-amino-1,6-dihydro-6-oxo-9H-purin-9-yl)pentyl)phosphinico)methyl)phosphonate] | 870 nM
4 | 4.5 nM | Nc1nc2c(ncn2CCCOCP(=O)(O)CP(=O)(O)O)c(=O)[nH]1 [Compound 6, ((((3-(2-amino-1,6-dihydro-6-oxo-9H-purine-9-yl)propoxy)methyl)phosphinico)methyl)phosphonic acid] | –
